Test results taken from ChEMBL document CHEMBL3044833, “Anticonvulsant activity of 3,5-dimethylpyrazole derivatives in animal models” (Med Chem Res, 2011).
The source made the active and inactive calls. The calls are words filed in the database; no cut-off is given here.

Experiments:
[1] = test system: Mus musculus; assay: Anticonvulsant activity in Mus musculus Balb/c (mouse) assessed as increase in latency to seizure at 100 mg/kg, ip pretreated 30 min before pentylenetetrazol challenge by pentylenetetrazol test; assay type: functional, organism-based; set-up: dose 100 mg/kg
[2] = test system: Mus musculus; assay: Anticonvulsant activity in Mus musculus Balb/c (mouse) assessed as decrease in severity of seizure at 100 mg/kg, ip pretreated 30 min before pentylenetetrazol challenge by pentylenetetrazol test; assay type: functional, organism-based; set-up: dose 100 mg/kg
[3] = test system: Mus musculus; assay: Anticonvulsant activity in Mus musculus Balb/c (mouse) assessed as inhibition of pentylenetetrazol-induced mortality at 100 mg/kg, ip pretreated 30 min before pentylenetetrazol challenge by pentylenetetrazol test; assay type: functional, organism-based; set-up: dose 100 mg/kg
[4] = test system: Mus musculus; assay: Anticonvulsant activity in Mus musculus Balb/c (mouse) assessed as effect on latency of tonic hind limb extension at 100 mg/kg, ip measured after 30 min by maximal electroshock seizure test; assay type: functional, organism-based; set-up: dose 100 mg/kg; conditions: Hindlimb
[5] = test system: Mus musculus; assay: Anticonvulsant activity in Mus musculus Balb/c (mouse) assessed as decrease in duration of tonic hind limb extension at 100 mg/kg, ip measured after 30 min by maximal electroshock seizure test; assay type: functional, organism-based; set-up: dose 100 mg/kg; conditions: Hindlimb
[6] = test system: Mus musculus; assay: Anticonvulsant activity in Mus musculus Balb/c (mouse) assessed as effect on maximal electroshock-induced mortality rate 100 mg/kg, ip measured after 30 min; assay type: functional, organism-based; set-up: dose 100 mg/kg
[7] = test system: Mus musculus; assay: Anticonvulsant activity in Mus musculus Balb/c (mouse) assessed as increase in latency to seizure at 150 to 200 mg/kg, ip pretreated 30 min before pentylenetetrazol challenge by pentylenetetrazol test; assay type: functional, organism-based
[8] = test system: Mus musculus; assay: Anticonvulsant activity in Mus musculus Balb/c (mouse) assessed as decrease in severity of seizure at 150 to 200 mg/kg, ip pretreated 30 min before pentylenetetrazol challenge by pentylenetetrazol test; assay type: functional, organism-based
[9] = test system: Mus musculus; assay: Anticonvulsant activity in Mus musculus Balb/c (mouse) assessed as inhibition of pentylenetetrazol-induced mortality at 150 to 200 mg/kg, ip pretreated 30 min before pentylenetetrazol challenge by pentylenetetrazol test; assay type: functional, organism-based
[10] = test system: Mus musculus; assay: Toxicity in Mus musculus Balb/c (mouse) assessed as duration of spike-wave discharges at 100 mg/kg, ip measured for 2 hr by EEG recordings (reference value: 359.8 +/- 33.5 sec); assay type: organism-based; set-up: dose 100 mg/kg, route intraperitoneal; conditions: in vivo
[11] = test system: Mus musculus; assay: Toxicity in Mus musculus Balb/c (mouse) assessed as duration of spike-wave discharges at 150 mg/kg, ip measured for 2 hr by EEG recordings (reference value: 359.8 +/- 33.5 sec); assay type: organism-based; set-up: dose 150 mg/kg, route intraperitoneal; conditions: in vivo
[12] = test system: Mus musculus; assay: Anticonvulsant activity in Mus musculus Balb/c (mouse) assessed as effect on severity of seizure at 150 to 200 mg/kg, ip pretreated 30 min before pentylenetetrazol challenge by pentylenetetrazol test; assay type: functional, organism-based

Row | SMILES | Activity [1] | inhibition [2] | inhibition [3] | Activity [4] | inhibition [5] | Activity [6] | Activity [7] | inhibition [8] | inhibition [9] | Time [10] | Time [11] | Activity [12]
1 | Cc1n[nH]c(C)c1/N=C/c1ccccc1O | Active | Active | Active |  |  |  |  |  |  |  |  | 
2 | Cc1n[nH]c(C)c1NC(=O)c1cccnc1 | Active | Active | Active |  |  |  |  |  |  |  |  | 
3 | Cc1nn(C(=O)c2ccc(Cl)cc2)c(C)c1NC(=O)c1ccc(Cl)cc1 | Active | Active | Active |  |  |  |  |  |  |  |  | 
4 | Cc1n[nH]c(C)c1/N=C/c1c(Cl)cccc1Cl | Active | Active | Active | inactive | Active | inactive |  |  |  |  |  | 
5 | Cc1nn(C(=O)c2c(Cl)cccc2Cl)c(C)c1NC(=O)c1c(Cl)cccc1Cl | Active | Active | Active |  |  |  | Active | Active | Active | 300 s | 337.5 s | 
6 | CCC1(C)CC(=O)NC1=O (configuration not stated) | Active | Active | Active |  |  |  |  |  |  |  |  | 
7 | Cc1nn(C(=O)c2ccc(F)cc2)c(C)c1NC(=O)c1ccc(F)cc1 | Active | Active | Active | inactive | Active | inactive |  |  |  |  |  | 
8 | COc1ccc(C(=O)Nc2c(C)nn(C(=O)c3ccc(OC)cc3)c2C)cc1 | Active | Active | Active |  |  |  | Active |  | inactive |  |  | inactive
9 | Cc1ccc(C(=O)Nc2c(C)nn(C(=O)c3ccc(C)cc3)c2C)cc1 | Active | Active | Active |  |  |  |  |  |  |  |  | 
10 | Cc1n[nH]c(C)c1/N=C/c1ccc(O)cc1 | Active | Active | Active |  |  |  |  |  |  |  |  | 
11 | Cc1n[nH]c(C)c1NC(=O)c1ccncc1 | Active | Active | Active |  |  |  |  |  |  |  |  | 
